Data on 52 compounds can be found in patent US5874432A, “Saccharin derivatives useful as proteolytic enzyme inhibitors and compositions and method of use thereof” (priority 1997, dated 1999).

This test addresses T1, human leukocyte elastase (Homo sapiens, UniProt P08246).
T1 sequence (P08246 30-267): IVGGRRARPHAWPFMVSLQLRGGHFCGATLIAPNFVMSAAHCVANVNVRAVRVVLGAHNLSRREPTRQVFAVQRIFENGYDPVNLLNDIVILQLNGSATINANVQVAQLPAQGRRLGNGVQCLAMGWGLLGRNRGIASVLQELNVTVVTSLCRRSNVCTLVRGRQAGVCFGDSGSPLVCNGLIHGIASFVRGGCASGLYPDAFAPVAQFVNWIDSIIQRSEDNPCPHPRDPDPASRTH
Nature of the test: elastase inhibition using human leukocyte elastase (kon and Ki*). The note with it: for Ki: Ki* = koff/kon, read-out: Elastase Ki *; for kon: read-out: Elastase 10^-3 × kon. It counts as biochemical.

[1] abbreviates: rate of inactivation of enzyme, value is 10^-3 × kon.

Structures are written as SMILES. Read-outs that look alike come from different tables or passages of the source.

Protocol: Thus, instead of measuring a Ki, a Ki * is calculated which is defined as the ratio of the koff /kon, the rate of reactivation of the enzyme to the rate of inactivation of the enzyme. The values of koff and kon are measured and Ki * is then calculated.
The rate of inactivation, kon, of enzymatic activity was determined for the compounds tested by measuring the enzyme activity of an aliquot of the respective enzyme as a function of time after addition of the test compound. […] The rate of inactivation is then equal to [formula] where [I] is the concentration of the inhibiting compound.
The reactivation constant, koff, is similarly determined and the inhibition constant, Ki *, is then calculated as

The Ki is the equilibrium dissociation constant of an inhibitor or competing ligand from its target. For orientation: kon means the second-order rate constant of association. With `CCOc1ccc(OCCOCCOC)c2c1C(=O)N(CSc1nnnn1-c1ccccc1)S2(=O)=O` [Example 30L], the Ki stood at 7.6 nM. Besides, under setting [1], the kon came out at 6500 M⁻¹ s⁻¹.
For the compound `O=C1c2ccccc2S(=O)(=O)N1CSc1nnc(SCCN2CCOCC2)s1` [Example 33, 2-(5-[2-(4-morpholinyl)ethylthio]-1,3,4-thiadiazol-2-ylthiomethyl)saccharin], the Ki was 12 nM and the kon came out at 3600 M⁻¹ s⁻¹.
With `O=C1c2ccccc2S(=O)(=O)N1CSc1nc(-c2ccccc2)ns1` [Example 30AF], the Ki stood at 12.5 nM. The “Elastase 10^-3 × kon” value under setting [1] was 4.2 M^-1 sec^-1.
As for `O=C1c2ccc([N+](=O)[O-])cc2S(=O)(=O)N1CSc1nnnn1-c1ccccc1` [Example 31C], the Ki came to 300 nM. Under setting [1], the kon worked out at 3400 M⁻¹ s⁻¹.
As to `CC(C)c1cccc2c1C(=O)N(CSc1nnnn1CC(=O)N(C)C)S2(=O)=O` [Example 30AW], the Ki is 1 nM. The kon under setting [1] is 30000 M⁻¹ s⁻¹.
For `COCCOCCOc1ccc(OC)c2c1S(=O)(=O)N(CSc1nnnn1-c1ccccc1)C2=O` [Example 30M], the Ki came to 10 nM. The kon under setting [1] worked out at 1000 M⁻¹ s⁻¹.
On to `O=C1c2cc([N+](=O)[O-])ccc2S(=O)(=O)N1CSc1nnnn1-c1ccccc1` [Example 11, 5-nitro-2-(1-phenyl-1H-tetrazol-5-ylthiomethyl)saccharin], for which the kon is 4600 M⁻¹ s⁻¹.
Turning to `O=C(O)CCC(=O)Nc1cccc(-n2nnnc2SCN2C(=O)c3ccccc3S2(=O)=O)c1` [Example 35, 2-[1-(3-succinoylaminophenyl)-1H-tetrazol-5-ylthiomethyl]saccharin], the Ki was 22 nM. The kon under setting [1] turned out to be 3600 M⁻¹ s⁻¹.
In the case of `O=C1c2ccccc2S(=O)(=O)N1/C=C/CSc1nnnn1-c1ccccc1` [Example 38, trans-2-[3-(1-phenyl-1H-tetrazol-5-ylthio)-1-propenyl]saccharin], the Ki stood at 2 nM. Further, under setting [1], the kon was determined as 43000 M⁻¹ s⁻¹.
`CC(C)Oc1cccc2c1C(=O)N(CSc1nnnn1-c1ccccc1)S2(=O)=O` [Example 30AU]: the kon under setting [1] turned out to be 8900 M⁻¹ s⁻¹.
Consider `CC(C)c1cccc2c1C(=O)N(CSc1nnnn1CCN1CCOCC1)S2(=O)=O` [Example 30BI], for which the Ki is 0.5 nM. The kon under setting [1] was 39000 M⁻¹ s⁻¹.
In the case of `O=C(CC(c1ccccc1)c1ccccc1)Nc1ccc2c(c1)C(=O)N(CSc1nnnn1-c1ccccc1)S2(=O)=O` [Example 16, 5-(3,3-diphenylpropionamido)-2-(1-phenyl-1H-tetrazol-5-ylthiomethyl)saccharin], the Ki turned out to be 2600 nM.
Turning to `O=C1C=Cc2ccc(OCN3C(=O)c4ccccc4S3(=O)=O)c3cccc1c23` [Example 30G], the Ki came to 7.7 nM. Also, under setting [1], the kon worked out at 9300 M⁻¹ s⁻¹.
As to `O=C1c2ccccc2S(=O)(=O)N1Cn1nnn(-c2cccnc2)c1=S` [Example 30R], the Ki stood at 36 nM. Under setting [1], the association rate constant (kon) was determined as 2300 M⁻¹ s⁻¹.
On to `COC(=O)c1cc(C(=O)OC)cc(-n2nnnc2SCN2C(=O)c3ccccc3S2(=O)=O)c1` [Example 30E], for which the inhibition constant Ki was 12.7 nM. In addition, under setting [1], the kon worked out at 7300 M⁻¹ s⁻¹.
As for `Cn1nnc(SCN2C(=O)c3ccccc3S2(=O)=O)n1` [Example 30X], the Ki amounted to 143 nM. Also, the kon under setting [1] is 550 M⁻¹ s⁻¹.
Regarding `COC(=O)c1cccc2c1C(=O)N(CCl)S2(=O)=O` [Example 22G], the inhibitory constant (Ki) turned out to be 50 nM. Further, the kon under setting [1] came out at 3000 M⁻¹ s⁻¹.
Consider `CSc1nn(CN2C(=O)c3ccccc3S2(=O)=O)c(=S)s1` [Example 30AD], for which the Ki is 11.6 nM. Further, under setting [1], the kon was found to be 7000 M⁻¹ s⁻¹.
On to `O=C1c2ccccc2S(=O)(=O)N1CF` [Example 27, 2-fluoromethylsaccharin], for which the Ki turned out to be 13 nM. In addition, under setting [1], the kon turned out to be 7500 M⁻¹ s⁻¹.
`CC(C)(C)CC(C)(C)c1ccc2c(c1)C(=O)N(CSc1nnnn1-c1ccccc1)S2(=O)=O` [Example 30A]: the Ki is 10500 nM.
For the compound `CCOc1cccc2c1C(=O)N(CSc1nnnn1-c1ccccc1)S2(=O)=O` [Example 30AT], under setting [1], the kon worked out at 45300 M⁻¹ s⁻¹.
Consider `CN(C)C(=O)Cn1nnnc1SCN1C(=O)c2ccccc2S1(=O)=O` [Example 30AS], for which the Ki was 40 nM. Further, the kon under setting [1] is 1700 M⁻¹ s⁻¹.
Consider `CCc1cccc2c1C(=O)N(CCl)S2(=O)=O` [Example 28], for which the Ki was 2.5 nM. Under setting [1], the “Elastase 10^-3 × kon” value is reported as 50.7 M^-1 sec^-1.
Consider `O=C1c2cccc(Cl)c2S(=O)(=O)N1CCl` [Example 22D], for which the inhibition constant Ki is 1.3 nM. For the same compound, the kon under setting [1] came out at 75800 M⁻¹ s⁻¹.
In the case of `CC(C)c1cccc2c1C(=O)N(Cn1nnn(-c3cccnc3)c1=S)S2(=O)=O` [Example 30Z], the Ki turned out to be 0.5 nM. The kon under setting [1] is 70000 M⁻¹ s⁻¹.
Consider `O=C1c2ccccc2S(=O)(=O)N1CSc1nc2ccc([N+](=O)[O-])cc2s1` [Example 30BD], for which the Ki was determined as 8 nM. The kon under setting [1] was determined as 11700 M⁻¹ s⁻¹.
With `Cn1cnnc1SCN1C(=O)c2ccccc2S1(=O)=O` [Example 30AC], the on-rate constant (kon) under setting [1] turned out to be 190 M⁻¹ s⁻¹.
For the compound `Cc1nnc(SCN2C(=O)c3ccccc3S2(=O)=O)s1` [Example 30AB], the Ki stood at 23 nM. In addition, under setting [1], the kon turned out to be 2800 M⁻¹ s⁻¹.
As to `O=C1c2ccccc2S(=O)(=O)N1CSc1nc2ccc([N+](=O)[O-])cc2o1` [Example 30BE], the Ki is 250 nM. Further, the kon under setting [1] came to 7400 M⁻¹ s⁻¹.
Consider `O=C1c2ccccc2S(=O)(=O)N1CSc1nnnn1CCO` [Example 30AQ], for which the Ki came to 260 nM. Further, the kon under setting [1] worked out at 900 M⁻¹ s⁻¹.
Regarding `CC(C)c1cccc2c1C(=O)N(CCl)S2(=O)=O` [Example 22E, 2-chloromethyl-4-isopropylsaccharin], the Ki is 91 nM. The association rate constant (kon) under setting [1] stood at 4700 M⁻¹ s⁻¹.
Take `O=C(O)c1ccc(-n2nnnc2SCN2C(=O)c3ccccc3S2(=O)=O)cc1` [Example 30D]: the Ki amounted to 85 nM. For the same compound, under setting [1], the kon is 800 M⁻¹ s⁻¹.
On the same counts, the results for `COc1ccc2c(c1OC)C(=O)N(CCl)S2(=O)=O` [Example 22F] are 6.5 nM and 20000 M⁻¹ s⁻¹.
Consider `O=C(O)c1cccc(-n2nnn(CN3C(=O)c4ccccc4S3(=O)=O)c2=S)c1` [Example 30-O], for which the Ki came out at 2000 nM. Further, the association rate constant (kon) under setting [1] came to 30 M⁻¹ s⁻¹.
As for `O=C1c2c(Cl)cccc2S(=O)(=O)N1CSc1nnnn1-c1ccccc1` [Example 4, 4-chloro-2-(1-phenyl-1H-tetrazol-5-ylthiomethyl)saccharin], the Ki was 12 nM. The association rate constant (kon) under setting [1] worked out at 20000 M⁻¹ s⁻¹.
On to `CC(C)c1cccc2c1C(=O)N(CSc1nnnn1C)S2(=O)=O` [Example 30AN], for which the Ki came to 30 nM. The kon under setting [1] came out at 19000 M⁻¹ s⁻¹.
On the same counts, the results for `CCC(C)c1cccc2c1C(=O)N(CCl)S2(=O)=O` (stereo not shown) [Example 22B, 2-chloromethyl-4-sec.-butylsaccharin] are 90 nM and 2400 M⁻¹ s⁻¹.
Take `O=C1c2ccccc2S(=O)(=O)N1CSc1nncn1-c1ccccc1` [Example 30I]: the Ki is 650 nM. Further, under setting [1], the kon worked out at 450 M⁻¹ s⁻¹.
Regarding `Cc1ccc(C)c2c1C(=O)N(CCl)S2(=O)=O` [Example 29, 2-chloromethyl-4,7-dimethylsaccharin], the inhibition constant Ki came out at 120 nM. For the same compound, the kon under setting [1] stood at 1100 M⁻¹ s⁻¹.
Take `O=C1c2ccccc2S(=O)(=O)N1C(Sc1nnnn1-c1ccccc1)c1ccccc1` (stereo not shown) [Example 19, 2-(1-phenyl-1H-tetrazol-5-ylthiophenylmethyl)saccharin]: the Ki stood at 8500 nM.
In the case of `O=C1c2ccccc2S(=O)(=O)N1COc1ccc([N+](=O)[O-])cc1` [Example 15, 2-(4-nitrophenoxymethyl)saccharin], the Ki worked out at 69 nM. Besides, the kon under setting [1] was found to be 3200 M⁻¹ s⁻¹.
Turning to `O=C1c2ccccc2S(=O)(=O)N1CS(=O)(=O)c1c(Cl)cccc1Cl` [Example 32A, 2-(2,6-dichlorophenylsulfonylmethyl)saccharin], the Ki was found to be 145 nM. Also, under setting [1], the on-rate (kon) turned out to be 600 M⁻¹ s⁻¹.
Regarding `CCc1cccc2c1C(=O)N(CSc1nnnn1CC(=O)N(C)C)S2(=O)=O` [Example 30AV], the Ki was found to be 15 nM. The kon under setting [1] was determined as 7600 M⁻¹ s⁻¹.
Regarding `O=C1c2ccccc2S(=O)(=O)N1CSc1nnnn1-c1cccnc1` [Example 30Q], the Ki was determined as 70.4 nM. For the same compound, the kon under setting [1] turned out to be 1380 M⁻¹ s⁻¹.
In the case of `O=C1c2ccccc2S(=O)(=O)N1CSc1nnc2ccccn12` [Example 30N], the inhibitory constant (Ki) was found to be 220 nM. Under setting [1], the kon worked out at 250 M⁻¹ s⁻¹.
On to `COC(=O)C(Sc1nnnn1-c1ccccc1)N1C(=O)c2ccccc2S1(=O)=O` (stereo not shown) [Example 17, methyl 2-(1-phenyl-1H-tetrazol-5-ylthio)-2-(2-saccharinyl)acetate], for which the inhibition constant Ki came out at 270 nM. The kon under setting [1] was determined as 2900 M⁻¹ s⁻¹.
On the same counts, the results for `CN(C)CCSc1nnc(SCN2C(=O)c3ccccc3S2(=O)=O)s1` [Example 33B, 2-(5-[2-(N,N-dimethylamino)-ethylthio]-1,3,4-thiadiazol-2-ylthiomethyl)saccharin] are 18 nM and 4000 M⁻¹ s⁻¹.
On the same counts, the results for `CCc1cccc2c1C(=O)N(CSc1nnnn1CCN1CCOCC1)S2(=O)=O` [Example 30J] are 10 nM and 14000 M⁻¹ s⁻¹.
For the compound `O=C(O)Cn1nnnc1SCN1C(=O)c2ccccc2S1(=O)=O` [Example 34, 2-[1-(2-carboxymethyl)-1H-tetrazol-5-ylthiomethyl]saccharin], the Ki worked out at 256 nM. Moreover, under setting [1], the kon was 400 M⁻¹ s⁻¹.
Take `CC(C)c1cccc2c1C(=O)N(Cn1nnn(-c3ccccc3)c1=S)S2(=O)=O` [Example 30AJ]: the Ki came out at 15.5 nM. Moreover, the association rate constant (kon) under setting [1] was 1800 M⁻¹ s⁻¹.
Consider `O=C1c2ccccc2C(=O)N1CN1C(=O)c2ccccc2S1(=O)=O` [Example 30BF], for which the Ki came out at 40000 nM. For the same compound, the on-rate constant (kon) under setting [1] was 20 M⁻¹ s⁻¹.
For the compound `CCOc1cccc2c1C(=O)N(CSc1nnnn1CC(=O)N(C)C)S2(=O)=O` [Example 30AX], the Ki worked out at 16 nM. Further, under setting [1], the kon was 7500 M⁻¹ s⁻¹.
